In PubChem BioAssay (NCI):
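Protocol summary: plate cells (96-well), add compound at 5 concentrations, incubate 48 h, interpolate endpoints linearly. Here, GI50 denotes the concentration required for 50% inhibition of growth. The concentration for full growth arrest is given as TGI.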

Legend:
Experiment in all cases: NCI tumour cell line growth inhibition, 48 h
A498 renal = tested on: A498 renal
OVCAR-8 ovarian = tested on: OVCAR-8 ovarian
RPMI-8226 leukemia = tested on: RPMI-8226 leukemia
T-47D breast = tested on: T-47D breast
SK-OV-3 ovarian = tested on: SK-OV-3 ovarian
M14 melanoma = tested on: M14 melanoma
SF-539 CNS = tested on: SF-539 CNS
UACC-62 melanoma = tested on: UACC-62 melanoma
HCT-15 colon = tested on: HCT-15 colon

## N#CCN1CCCN(CC#N)CCN(CC#N)CCCN(CC#N)CC1
A498 renal
  TGI: > 100 µM
OVCAR-8 ovarian
  TGI: > 100 µM
RPMI-8226 leukemia
  TGI: > 100 µM
T-47D breast
  TGI: > 100 µM
SK-OV-3 ovarian
  TGI: > 100 µM
M14 melanoma
  TGI: > 100 µM
SF-539 CNS
  TGI: > 100 µM
UACC-62 melanoma
  TGI: > 100 µM

## O=c1cc(NNc2cccc(F)c2)[nH]c(=S)[nH]1
A498 renal
  TGI: > 100 µM
HCT-15 colon
  TGI: > 100 µM
OVCAR-8 ovarian
  TGI: > 100 µM
RPMI-8226 leukemia
  TGI: > 100 µM
M14 melanoma
  TGI: > 100 µM
SF-539 CNS
  TGI: > 100 µM

## COc1ccccc1[C@@H]1CCC2CC[C@@H](c3ccccc3OC)[N+]21Cc1ccccc1 (stereo partly specified)
A498 renal
  TGI: 7.66 µM
HCT-15 colon
  TGI: 15.2 µM
OVCAR-8 ovarian
  TGI: 13.8 µM
RPMI-8226 leukemia
  TGI: 1.47 µM
T-47D breast
  TGI: 10.8 µM
SK-OV-3 ovarian
  TGI: 11.7 µM
M14 melanoma
  TGI: 12 µM

## CN(C)C1(c2cc3ccccc3s2)CCCCC1
A498 renal
  TGI: > 100 µM
HCT-15 colon
  TGI: > 100 µM
OVCAR-8 ovarian
  TGI: > 100 µM
SK-OV-3 ovarian
  TGI: > 100 µM
M14 melanoma
  TGI: 35.7 µM
SF-539 CNS
  TGI: > 100 µM
UACC-62 melanoma
  TGI: 60.6 µM

## Nc1nc(N)c2nc(CNc3ccc(C(=O)NC(CCNC(=O)c4ccccc4C(=O)O)C(=O)O)cc3)cnc2n1 (stereo unspecified)
A498 renal
  TGI: > 100 µM
HCT-15 colon
  GI50: 0.0072 µM
  TGI: > 100 µM
OVCAR-8 ovarian
  GI50: 0.00813 µM
  TGI: > 100 µM
RPMI-8226 leukemia
  GI50: 0.0343 µM
  TGI: > 100 µM
T-47D breast
  TGI: > 100 µM
SK-OV-3 ovarian
  TGI: > 100 µM
M14 melanoma
  GI50: 0.0737 µM
  TGI: > 100 µM
SF-539 CNS
  GI50: 0.0574 µM

## COc1c(C)c(C/C=C(\C)CCCCO)c(OC)c2ccccc12
HCT-15 colon
  TGI: > 100 µM
OVCAR-8 ovarian
  TGI: > 100 µM
RPMI-8226 leukemia
  TGI: > 100 µM
SK-OV-3 ovarian
  TGI: > 100 µM
M14 melanoma
  TGI: > 100 µM
SF-539 CNS
  TGI: > 100 µM
UACC-62 melanoma
  TGI: > 100 µM

## Cc1sc2nc3n(c(=O)c2c1C)N=C(c1ccccc1)CS3
A498 renal
  TGI: > 100 µM
HCT-15 colon
  TGI: > 100 µM
OVCAR-8 ovarian
  TGI: > 100 µM
RPMI-8226 leukemia
  TGI: > 100 µM
T-47D breast
  TGI: > 100 µM
SK-OV-3 ovarian
  TGI: > 100 µM
SF-539 CNS
  TGI: > 100 µM
UACC-62 melanoma
  TGI: > 100 µM

## CCOP(=O)(OCC)C(C)(CC)/N=C(\N)NC#N (stereo unspecified)
HCT-15 colon
  TGI: > 100 µM
OVCAR-8 ovarian
  TGI: > 100 µM
RPMI-8226 leukemia
  TGI: > 100 µM
T-47D breast
  TGI: > 100 µM
SK-OV-3 ovarian
  TGI: > 100 µM
M14 melanoma
  TGI: > 100 µM
SF-539 CNS
  TGI: > 100 µM
UACC-62 melanoma
  TGI: > 100 µM

## COC(=O)C1Cc2c([nH]c3ccccc23)-c2[nH]c3ccccc3c2CC(NC(C)=O)C(=O)N2CCCC2C(=O)N1 (stereo unspecified)
HCT-15 colon
  TGI: > 100 µM
OVCAR-8 ovarian
  TGI: > 100 µM
RPMI-8226 leukemia
  TGI: > 100 µM
T-47D breast
  TGI: > 100 µM
SK-OV-3 ovarian
  TGI: > 100 µM
SF-539 CNS
  TGI: > 100 µM
UACC-62 melanoma
  TGI: > 100 µM

## CCN(CCN(CC)C(=O)NC)C(=O)NC
A498 renal
  TGI: > 100 µM
HCT-15 colon
  TGI: > 100 µM
OVCAR-8 ovarian
  TGI: > 100 µM
RPMI-8226 leukemia
  TGI: > 100 µM
T-47D breast
  TGI: > 100 µM
SK-OV-3 ovarian
  TGI: > 100 µM
M14 melanoma
  TGI: > 100 µM
UACC-62 melanoma
  TGI: > 100 µM

## c1ccc(Sc2nc(Sc3ccccc3)nc(Sc3ccccc3)n2)cc1
A498 renal
  TGI: 86.8 µM
HCT-15 colon
  TGI: > 100 µM
RPMI-8226 leukemia
  TGI: > 100 µM
T-47D breast
  TGI: 45 µM
SK-OV-3 ovarian
  TGI: > 100 µM
M14 melanoma
  TGI: > 100 µM
SF-539 CNS
  TGI: > 100 µM
UACC-62 melanoma
  TGI: > 100 µM

## COC1=CC(c2ccc[nH]2)=N/C1=C\c1[nH]c(C)c(C)c1CCC(=O)OCc1ccccc1
A498 renal
  GI50: 0.563 µM
  TGI: 1.99 µM
HCT-15 colon
  GI50: 0.305 µM
  TGI: 1.18 µM
OVCAR-8 ovarian
  GI50: 0.366 µM
  TGI: 1.44 µM
T-47D breast
  GI50: 0.227 µM
  TGI: 0.876 µM
SK-OV-3 ovarian
  GI50: 1.79 µM
  TGI: 5.16 µM
M14 melanoma
  GI50: 0.285 µM
  TGI: 1 µM

## CCOC(=O)C(NC(=O)c1ccccc1)(Nc1ccc(S(=O)(=O)Nc2ccc(OC)nn2)cc1)C(F)(F)F (stereo unspecified)
HCT-15 colon
  TGI: > 100 µM
OVCAR-8 ovarian
  TGI: > 100 µM
RPMI-8226 leukemia
  TGI: > 100 µM
T-47D breast
  TGI: > 100 µM
SK-OV-3 ovarian
  TGI: > 100 µM
M14 melanoma
  TGI: > 100 µM
SF-539 CNS
  TGI: > 100 µM
UACC-62 melanoma
  TGI: > 100 µM

## COC(=O)C1CCCN1C(=O)OC(C)(C)C (stereo unspecified)
HCT-15 colon
  TGI: > 100 µM
T-47D breast
  TGI: > 100 µM
SK-OV-3 ovarian
  TGI: > 100 µM
UACC-62 melanoma
  TGI: > 100 µM

## CN1CCN(Cn2nc(-c3cc(F)c(Cl)cc3Cl)oc2=S)CC1
HCT-15 colon
  GI50: 39.7 µM
  TGI: > 100 µM
RPMI-8226 leukemia
  GI50: 22.7 µM
  TGI: 50.9 µM
T-47D breast
  TGI: 27 µM
SK-OV-3 ovarian
  GI50: 56.9 µM
  TGI: > 100 µM
SF-539 CNS
  GI50: 29.9 µM
  TGI: 71.5 µM
UACC-62 melanoma
  GI50: 21.2 µM
  TGI: 55.2 µM

## CC1(C)OC2[C@@H](CO[C@@]3([C@H]4OC(C)(C)O[C@@H]4CO)OC(C)(C)O[C@@H]23)O1 (stereo partly specified)
HCT-15 colon
  TGI: > 100 µM
OVCAR-8 ovarian
  TGI: > 100 µM
RPMI-8226 leukemia
  TGI: > 100 µM
T-47D breast
  TGI: > 100 µM
SK-OV-3 ovarian
  TGI: > 100 µM
M14 melanoma
  TGI: > 100 µM
UACC-62 melanoma
  TGI: > 100 µM

## Cc1cc2c(cc1-c1cc3c(cc1C)C(C(C)C)=C(O)C(=O)/C3=C\Nc1ccccn1)/C(=C/Nc1ccccn1)C(=O)C(O)=C2C(C)C
A498 renal
  TGI: > 100 µM
HCT-15 colon
  TGI: > 100 µM
OVCAR-8 ovarian
  TGI: > 100 µM
RPMI-8226 leukemia
  TGI: > 100 µM
T-47D breast
  TGI: > 100 µM
M14 melanoma
  TGI: > 100 µM
SF-539 CNS
  TGI: > 100 µM
UACC-62 melanoma
  TGI: > 100 µM

## CCC1OC2C(CC=C(C)C)=C3OC(C)(O)C(C)(CC)C(=O)C3=C3OC(=O)C=C1C32 (stereo unspecified)
A498 renal
  TGI: > 100 µM
HCT-15 colon
  TGI: > 100 µM
RPMI-8226 leukemia
  TGI: > 100 µM
T-47D breast
  TGI: > 100 µM
SK-OV-3 ovarian
  TGI: > 100 µM
M14 melanoma
  TGI: > 100 µM
SF-539 CNS
  TGI: 23.1 µM
UACC-62 melanoma
  TGI: 83.4 µM

## COc1cc2nc3n(c(=O)c2cc1OC)CCCCC3
A498 renal
  TGI: > 100 µM
HCT-15 colon
  TGI: > 100 µM
OVCAR-8 ovarian
  TGI: > 100 µM
RPMI-8226 leukemia
  TGI: > 100 µM
T-47D breast
  TGI: > 100 µM
SK-OV-3 ovarian
  TGI: > 100 µM
M14 melanoma
  TGI: > 100 µM
UACC-62 melanoma
  TGI: > 100 µM

## Cc1ccc(S(=O)(=O)NCCCSCCO)cc1
A498 renal
  TGI: > 100 µM
HCT-15 colon
  TGI: > 100 µM
OVCAR-8 ovarian
  TGI: > 100 µM
T-47D breast
  TGI: > 100 µM
SK-OV-3 ovarian
  TGI: > 100 µM
M14 melanoma
  TGI: > 100 µM

## CCc1n[nH]c(=O)n1N=C(c1ccccc1)c1ccccc1
A498 renal
  TGI: > 100 µM
HCT-15 colon
  TGI: > 100 µM
OVCAR-8 ovarian
  TGI: > 100 µM
RPMI-8226 leukemia
  TGI: > 100 µM
T-47D breast
  TGI: > 100 µM
M14 melanoma
  TGI: > 100 µM
UACC-62 melanoma
  TGI: > 100 µM

## O=C1C(=O)N(C23CC4CC(CC(C4)C2)C3)C(=S)N1c1ccccc1
A498 renal
  TGI: > 100 µM
HCT-15 colon
  TGI: > 100 µM
OVCAR-8 ovarian
  TGI: > 100 µM
RPMI-8226 leukemia
  TGI: > 100 µM
T-47D breast
  TGI: > 100 µM
SK-OV-3 ovarian
  TGI: > 100 µM
SF-539 CNS
  TGI: > 100 µM
UACC-62 melanoma
  TGI: > 100 µM

## CCSc1[nH]c(NC(=NC(C)C)NC(=O)c2ccccc2)c(C(N)=O)c1C(N)=O
HCT-15 colon
  TGI: > 10 µM
OVCAR-8 ovarian
  TGI: > 10 µM
RPMI-8226 leukemia
  TGI: > 10 µM
T-47D breast
  TGI: > 10 µM
SK-OV-3 ovarian
  TGI: > 10 µM
M14 melanoma
  TGI: > 10 µM
UACC-62 melanoma
  TGI: > 10 µM

## C=CC(=C)CCC(Br)C(C)(C)Cl (stereo unspecified)
HCT-15 colon
  TGI: > 100 µM
OVCAR-8 ovarian
  TGI: > 100 µM
RPMI-8226 leukemia
  TGI: > 100 µM
T-47D breast
  TGI: > 100 µM
SK-OV-3 ovarian
  TGI: > 100 µM
M14 melanoma
  TGI: > 100 µM
SF-539 CNS
  TGI: > 100 µM
UACC-62 melanoma
  TGI: > 100 µM

## Cn1c(=O)oc2cc(C(=S)N3CCCCC3)ccc21
A498 renal
  TGI: > 100 µM
HCT-15 colon
  TGI: > 100 µM
OVCAR-8 ovarian
  TGI: > 100 µM
RPMI-8226 leukemia
  TGI: > 100 µM
SK-OV-3 ovarian
  TGI: > 100 µM
M14 melanoma
  TGI: > 100 µM
SF-539 CNS
  TGI: > 100 µM
UACC-62 melanoma
  TGI: > 100 µM
